Read-outs that look alike come from different tables or passages of the source.
How the values were obtained:
[1] = tested on: Con1 subgenomic HCV replicon (genotype 1b); assay: Con1 subgenomic replicon HCV RNA in SgPC2 cells (Northern blot); format: cell-based, hepatitis C virus; conditions: 24 h; for potentiation of HCV RNA replication by ethanol, acetaldehyde, isopropyl alcohol, acetone, and acetate: 30 min pretreatment with 5 μM lovastatin, 5 μM fluvastatin, 5 μg/ml TOFA or 5 μg/ml cerulenin; for HCV RNA level / HCV replication in SgPC2 cells: 5 μM acetaldehyde, 5 μM acetate, 0.2% isopropyl alcohol, 2 mM acetone, 25 mM tert-butanol, 5 mM lactate
Excerpt: (§1) The genotype 2a HCV constructs, pJFH1 (produces infectious virus particles), replicative-null pJFH1-GND, and subgenomic pSgJFH1-Luc (contains a luciferase reporter gene), are described elsewhere (23, 24). Subgenomic HCV replicons are bicistronic constructs that express only the nonstructural proteins of HCV under the control of encephalocarditis virus IRES; neomycin resistance or firefly luciferase gene is under the control of the HCV IRES (15, 22, 24). These replicons support HCV RNA replication but no virus is formed in cell culture. Huh7 cell clones (SgPC2 cells, Clone B) supporting continuous replication of subgenomic HCV replicon of genotype 1b (Con1 sequence) were also used (17, 22).
(§2) The in vitro transcription, and transfection of HCV RNA, and Huh7 human hepatoma cell culture were performed as previously described (17). For experiments involving stable clones, cells were cultured in medium supplemented with 0.4-0.5 mg/mL G418, and G418 was removed from cell culture medium one day prior to cell treatments, which were performed as described in Results. For the in vitro infectivity assays, 2 ml of the extracellular medium from JFH1 RNA-transfected cells was used to inoculate naive Huh7 or Huh7.5 cells with 3 ml of fresh medium, as described (23, 25). Treatments were initiated 24 hours after infection and the cells were harvested after another 24 or 48 hrs.
(§3) Intracellular RNA extraction and northern blots were carried out, as described (16, 17). DNA probes were prepared from nucleotides (“nt.”) 4128-8273 or 358-2816 of JFH1, generated with ScaI and ApaL I, respectively, or nt. 3669 to 6016 of the Con1 subgenomic replicons. Images were quantified by densitometry, using Optiquant Cyclone 4.00 (Perkin Elmer), and data were normalized by glyceraldehyde 3-phosphate dehydrogenase (GAPDH) mRNA content.

HCV = conditions: references 53, 54; cited from earlier work
[2] = tested on: intracellular cholesterol; assay: Total intracellular cholesterol content in SgPC2 cells; format: cell-based, human; conditions: 24 h
Method: FIG. 7. […] SgPC2 cells were treated for 24 h with (A and B) 0.2% ethanol, 5 μM acetaldehyde, 0.2% isopropyl alcohol, 2 mM acetone, 5 μM acetate±30 min pretreatment with (A) 5 μM lovastatin, 5 μM fluvastatin, (B) 5 μg/ml TOFA, 5 μg/ml cerulenin, or with (C) 2 mM β-mercaptopropionic acid (β-MPA). Then, HCV RNA levels were monitored by Northern blot and quantified by densitometry (n=3). D, SgPC2 cells, treated for 24 h with ethanol, acetaldehyde, acetone, and acetate±lovastatin, were monitored for cholesterol levels (n=3). Lovastatin was activated, as described, before use (29). *, indicates statistically significant difference for indicated sample sizes (p<0.05)

NADH/NAD+ ratio = assay: NADH/NAD+ enzymatic NADH recycling assay; format: cell-based, human; conditions: for NADH/NAD+ ratio: SgPC2 cells, 0.2% ethanol, 5 μM acetaldehyde, 5 μM acetate, 0.2% isopropyl alcohol, 2 mM acetone, 25 mM tert-butanol; for NADH/NAD+ ratio in ethanol-treated cells: with cyanamide, 4 MP, and DADS, data not shown
[3] = tested on: Con1 HCV subgenomic replicon; assay: Con1 subgenomic replicon HCV RNA in Clone B cells; format: cell-based, hepatitis C virus; conditions: 24 hrs, response compared with SgPC2 cells
Excerpt: as §1, §3

JFH1 virus = assay: HCV RNA in naive Huh7 or Huh7.5 cells inoculated with JFH1 virus-containing medium; format: cell-based, hepatitis C virus
Method: as §2
The total intracellular RNA was obtained from cells using Trizol (Invitrogen). To obtain extracellular HCV RNA, cell culture medium samples were first treated with RNase A (100 μg/ml) for 30 min at room temperature, then RNA was extracted using Trizol LS and glycogen as a carrier. HCV RNA was quantified by qRT-PCR as described (17, 23). For JFH1, the primer sequences were 5′ […] 3′ (nt 146 to 164; forward, SEQ ID NO.: 1), and 5′ […] 3′ (nt 277 to 295; reverse, SEQ ID NO.: 2), and the sequence of the fluorogenic probe, labeled with 6-FAM and TAMRA (Biosearch Technologies, Inc.), was 5′ […] 3′ (nt 168 to 188, SEQ ID NO.: 3). The primer and probe sequences for qRT-PCR analysis of Con1 RNA's were described previously (17). Standard curves were generated using in vitro-transcribed HCV RNA's. Intracellular HCV RNA levels were normalized by 18 S rRNA or GAPDH mRNA.

JFH1 HCV (genotype 2a) = format: cell-based, hepatitis C virus
[4] = tested on: SgJFH1-Luc subgenomic HCV replicon (genotype 2a); format: cell-based, hepatitis C virus
Excerpt: as §1
After various treatments, SgJFH1 Luc RNA-transfected cells were lysed with 1× Reporter Lysis Buffer, and the luciferase activity was determined using Luciferase Reporter Assay Kit (Promega Corp.) (24). Luciferase activities were normalized by total protein content, determined with bicinchoninic acid (BCA) assay kit from Pierce.
To test whether the JFH1 RNA replication was also affected by ethanol, Huh7 cells were transfected with JFH1 SgJFH1-Luc RNA and exposed the cells to ethanol for 48 hours. Then, HCV replication was monitored by measuring the firefly luciferase activity (24).

[5] = tested on: Huh7 human hepatoma cells
Method: NADH and NAD+ levels were determined by enzymatic NADH recycling assay, using the NAD+/NADH Quantification Kit from Biovision, per manufacturers recommendations with an optional filtration step that used Microcon YM-10 (Millipore). Total ATP content was measured using Somatic Cell ATP Assay Kit from Sigma-Aldrich. The data were normalized by total protein content, determined with BCA assay kit from Pierce.
To examine whether ethanol increased the complete replication of HCV, positive-sense genomic JFH1 RNA was produced by in vitro transcription, using T7 RNA polymerase, and transfected into Huh7 human hepatoma cells. Then, the transfected cells were exposed to 0-1.0% (v/v; 0-172 mM) ethanol once daily with a change of medium each day for 48 hrs. Then, the cells and the cell culture medium were harvested and analyzed for intracellular and RNase A-resistant extracellular HCV RNA's by a combination of Northern blots and qRT-PCR.

[6] = acetaldehyde at physiologically relevant concentrations, 24 hrs
[7] = BSO with 2 mM GSH or GSH ester, 24 hrs
[8] = 0.2% ethanol ± 0.1 mM 4 MP plus 25 μM DADS

Q: For `C/C=C/C/C=C/CCC(=O)[C@H]1O[C@H]1C(N)=O` [cerulenin], which “potentiation of HCV RNA replication by ethanol, acetaldehyde, isopropyl alcohol, acetone, and acetate” value (from here on “potentiation of HCV RNA replication”) ([1]; SgPC2 cells) is on record?
A: The value was “almost completely inhibited”.

Q: And the “basal level of HCV replication” value (HCV)?
A: The value was “suppress”.

Q: Which “HCV RNA level / HCV replication in SgPC2 cells” value (“HCV RNA level / HCV replication” below) [1] does the source give for `CC(C)=O` [acetone] here?
A: The value was “increased”.

Q: What about the “total intracellular cholesterol content” value [2] of the same compound?
A: Its value is “increased”.

Q: And the “NADH/NAD+ ratio” value (NADH/NAD+ ratio; 3 h)?
A: The value was “increases”.

Q: With `CC=O` [acetaldehyde] as the compound, how does the “HCV RNA in Clone B cells” value [3] read?
A: Its value is “responded similarly”.

Q: What about the “HCV RNA level / HCV replication” value [1] of the same compound?
A: Its value is “elevated”.

Q: What about the “total intracellular cholesterol content” value [2] of the same compound?
A: Its value is “increased”.

Q: What about the “HCV replication in RIG-1-defective Huh7.5 cells” value (JFH1 virus; FIG. 5, also data not shown) of the same compound?
A: Its value is “increase”.

Q: What about the “HCV replication in naive cells infected with virus-containing medium” value (JFH1 virus; Huh7.5 cells, acetaldehyde 24 hrs) of the same compound?
A: Its value is “significant increases”.

Q: What about the “HCV RNA content in virus-producing JFH1 cells” value (JFH1 HCV (genotype 2a); [6]) of the same compound?
A: Its value is “significantly increased”.

Q: What about the “NADH/NAD+ ratio” value (NADH/NAD+ ratio; 3 h) of the same compound?
A: The value was “increases”.

Q: What about the “HCV RNA content in non-virus producing JFH1 cells” value [4, 6] of the same compound?
A: The value was “significantly increased”.

Q: Which “increase in HCV replication” value ([1]; 2 mM β-mercaptopropionic acid, SgPC2 cells) does the source give for `O=C(O)CCS` [β-mercaptopropionic acid] here?
A: The value was 15.2±1.7 fold.

Q: What does the source list for `OO` [H2O2, Hydrogen peroxide]?
A: JFH1 RNA levels (JFH1 HCV (genotype 2a); 25, 50, and 100 μM bolus H2O2, 24 hrs): decreased; cytotoxicity in JFH1 cells ([5]; 100 μM H2O2): some cytotoxicity; cytotoxicity in JFH1 cells ([5]; 25 and 50 μM H2O2): clearly within the subtoxic range

Q: For `CCCCCCCCCCCCCCOc1ccc(C(=O)O)o1` [TOFA, 5-(Tetradecyloxy)-2-furoic acid], which “potentiation of HCV RNA replication” value ([1]; SgPC2 cells) is on record?
A: The value was “almost completely inhibited”.

Q: What about the “basal level of HCV replication” value (HCV) of the same compound?
A: The value was “suppress”.

Q: For `CCOC(=O)CNC(=O)[C@H](CS)NC(=O)CC[C@H](N)C(=O)O` [GSH ethyl ester], which “restoration of extracellular HCV RNA in BSO-treated cells” value (JFH1 HCV (genotype 2a); [7]) is on record?
A: Its value is “partially restored”.

Q: And the “restoration of intracellular HCV RNA in BSO-treated cells” value (JFH1 HCV (genotype 2a); [7])?
A: Its value is “partially restored”.

Q: With `N#CN` [cyanamide] as the compound, how does the “potentiation of HCV replication by ethanol” value ([1]; 0.2% ethanol ± 0.1 mM cyanamide) read?
A: The value was “suppressed”.

Q: And the “NADH/NAD+ ratio in ethanol-treated cells” value (NADH/NAD+ ratio)?
A: Its value is “decreases”.

Q: With `C=CCSSCC=C` [DADS] as the compound, how does the “potentiation of HCV replication by ethanol” value [1, 8] read?
A: The value was “suppressed”.

Q: What about the “NADH/NAD+ ratio in ethanol-treated cells” value (NADH/NAD+ ratio) of the same compound?
A: Its value is “decreases”.

Q: With glucose oxidase [GO] as the compound, how does the “decrease of intracellular JFH1 RNA” value (JFH1 HCV (genotype 2a); 0.25 mU/mL GO + glucose, 24 hrs) read?
A: The value was 30±8%.

Q: What about the “effect on the suppression of HCV RNA by BSO” value (JFH1 HCV (genotype 2a); GO + glucose after 16 hr pre-treatment with 20 μM BSO, 24 hrs) of the same compound?
A: The value was “exacerbated the suppression”.

Q: And the “effect on the suppression of subgenomic JFH1 RNA replication by BSO” value [4]?
A: The value was “exacerbated the suppression”.

Q: With `Cc1cn[nH]c1` [4 MP, 4-methylpyrazole] as the compound, how does the “potentiation of HCV replication by ethanol” value [1, 8] read?
A: Its value is “suppressed”.

Q: And the “NADH/NAD+ ratio in ethanol-treated cells” value (NADH/NAD+ ratio)?
A: The value was “decreases”.

Q: With `CC[C@H](C)C(=O)O[C@H]1C[C@@H](C)C=C2C=C[C@H](C)[C@H](CC[C@@H]3C[C@@H](O)CC(=O)O3)[C@H]21` [lovastatin, Lovastatin] as the compound, how does the “potentiation of HCV RNA replication” value ([1]; SgPC2 cells) read?
A: The value was “almost completely inhibited”.

Q: And the “increase of intracellular cholesterol content by ethanol, acetaldehyde, acetone, and acetate” value ([2]; ± lovastatin)?
A: The value was “attenuated”.

Q: And the “basal level of HCV replication” value (HCV)?
A: The value was “suppress”.

Q: For `N[C@@H](CCC(=O)N[C@@H](CS)C(=O)NCC(=O)O)C(=O)O` [GSH, glutathione], which “restoration of intracellular HCV RNA in BSO-treated cells” value (JFH1 HCV (genotype 2a); [7]) is on record?
A: The value was “could not restore”.

Q: Which “HCV RNA level / HCV replication” value [1] does the source give for `CC(=O)O` [acetate] here?
A: Its value is “increased”.

Q: What about the “total intracellular cholesterol content” value [2] of the same compound?
A: The value was “increased”.

Q: And the “NADH/NAD+ ratio” value (NADH/NAD+ ratio; 3 h)?
A: The value was “increases”.

Q: For `CC(C)O` [isopropyl alcohol], which “HCV RNA level / HCV replication” value [1] is on record?
A: Its value is “increased”.

Q: What about the “NADH/NAD+ ratio” value (NADH/NAD+ ratio; 3 h) of the same compound?
A: Its value is “increases”.

Q: Which “HCV RNA level / HCV replication” value [1] does the source give for `CC(C)(C)O` [tert-butanol] here?
A: The value was “did not elevate”.

Q: What about the “NADH/NAD+ ratio” value (NADH/NAD+ ratio; 3 h) of the same compound?
A: The value was “did not elevate”.

Q: With `CC(O)C(=O)O` (centres unmarked) [lactate] as the compound, how does the “HCV RNA level / HCV replication” value [1] read?
A: The value was “little to no effect”.

Q: What about the “total intracellular cholesterol content” value [2] of the same compound?
A: Its value is “no significant effect”.

Q: What about the NADH levels (NADH/NAD+ ratio; 5 mM lactate, 3 h) of the same compound?
A: Its NADH levels is 235.9±11.9 % of the control level.
